Tests used:
[1] = tested on: mice exposed to chronic transverse aortic constriction; conditions: cited from earlier work
[2] = tested on: embolic middle cerebral artery occlusion; conditions: oral, seven consecutive days starting 2 h or 24 h after occlusion; cited from earlier work
[3] = tested on: hypoxia-induced PHT in rats; conditions: chronic hypoxia; cited from earlier work
[4] = tested on: ROS (reactive oxygen species); experiment: ROS in cytosol and mitochondria of cardiomyocytes; format: cell-based; conditions: cardiomyocytes hypertrophy
Source text: In this invention, we disclosed that compound A could suppress cardiomyocytes hypertrophy by reducing ROS (reactive oxygen species) in either cytosol and mitochondria in addition to the inhibition of PED, while classic PED inhibitor such as sildenafil has no such effects been reported in prior arts. This explains the superiority of compound A over sildenafil in suppressing hypertrophy and other diseases. This invention disclosed a new use of compound A as PED inhibitor with novel mechanism which is different than what been disclosed in prior art.

[5] = tested on: cardiomyocyte from guinea pig; experiment: Electrophysiology in guinea pig cardiomyocyte after ischemia and reperfusion; format: cell-based
Source text: This invention also disclosed that in cardiomyocyte from guinea pig, that compound A can reduce elongated QT segment and increased QT variations, further it prevent prolonged action potential, decrease resting potential and suppressed Herg (Ikr) currents as result of ischemia and reperfusion. Compound A can also as an scavenger to reduce ROS (reactive oxygen species). Therefore, it can be used for treatment of abnormal ECG in clinic diagnosed with above or used for diseases or clinic procedures which may involve above mentioned mechanism.

BNP = experiment: Isoproterenol-induced cardiomyocyte hypertrophy (BNP RT-PCR, western blot, size); format: cell-based
Source text: BNP is an important marker for hypertrophy.

[6] = tested on: mitochondrial KATP channel; experiment: Mitochondrial KATP channel effect
Source text: (§1) This invention disclosed exclusively that compound A per se had no effect on either sarcolemma or mitochondrial KATP channel. Instead, compound A is acting only as a sensitizer which render the KATP channel response greater to known KATP channel openers, such as pinacidil and to change of ATP.

[7] = tested on: hypertrophy cardiomyocytes; experiment: Cytosol Ca++ in hypertrophy cardiomyocytes; format: cell-based
Source text: This invention disclosed a novel use of inotropic medicine selectively that is compound A can be used to improve the cardiac function in a deteriorative hypertrophy heart without increase cytosol Ca++ or oxygen consumption. In addition it was not worsening the ECG instead it improve the ECG in hypertrophy heart. This is due to that compound A can reduce cardiomyocytes cytosol Ca++ level but enhance only the peak of Ca++ transient during each contraction in hypertrophy cardiomyocytes. This novel finding makes compound A different from other known traditional inotropic medicine such digitalis and beta agonists such as epinephrine.

sarcolemma KATP channel = experiment: Sarcolemma KATP channel effect
Source text: as §1

TAC rats = experiment: Left ventricular pressure-volume relationship in TAC rats; format: in vivo; conditions: 3 or 9 weeks
Experimental: The left ventricular pressure and volume were measured simultaneously. Tow parameters can be derived by studying of the relationship of pressure-volume during changes of either preload or afterload. ESPVR, the slope of end-systolic pressure-volume relationships which represent end-systolic elastics; EDPVR, the slope of end-diastolic pressure-volume relationship which, represents cardiac stiffness. In hypertrophy hearts after 3 or 9 weeks TAC, the cardiac pump dysfunction was manifested by a significant decreased ESPVR and increased in EDPVR. […] Therefore, compound A are useful to preserve a normal elasticity during contraction and reduce diastolic stiffness of hearts with high pressure load as in TAC rats.
Heart hemodynamic Analysis was conducted by pressure-volume (PV) catheter. Rats were anesthetized and placed on a warming pad (37° C.). Underwent tracheostomy, rats were then ventilated by using a positive pressure with a tidal volume of 4-6 ml/200 g at 70 breaths/min using room air. […] After stabilization of the signal for 10-15 min, baseline PV loops were recorded at a steady state. […] After data were recorded under steady-state conditions and during preload reduction, parallel conductance values were obtained by the injection of 40 μl hypertonic saline (30%) into the right jugular vein. […] Data were recorded on separate channels of the PowerLab system. […]

[8] = tested on: acute ischemia-reperfusion heart injuries; conditions: cited from earlier work
microRNA21 = microRNA21 and fibrosis at penumbra region of ischemic heart; format: in vivo
Source text: This effect of compound A has never been reported in prior art.

SMILES	chamber and cardiomyocytes hypertrophy [1]	infarct volume [2]	neurological recovery [2]	rise in pulmonary artery pressure and vascular remodeling [3]	ROS in cytosol and mitochondria [4]	decrease resting potential [5]	elongated QT segment and increased QT variations [5]	prolonged action potential [5]	suppressed Herg (Ikr) currents [5]	increase of BNP production and BNP mRNA expression (BNP; cardiomyocytes, isoproterenol stimulus)	increased size of myocardium induced by isoproterenol (BNP; isoproterenol)	effect on mitochondrial KATP channel per se [6]	cardiomyocytes cytosol Ca++ level [7]	peak of Ca++ transient during each contraction [7]	effect on sarcolemma KATP channel per se (sarcolemma KATP channel)	KATP channel response to known openers such as pinacidil and to change of ATP (sarcolemma KATP channel; sarcolemma or mitochondrial not distinguished)	deteriorations in ESPVR and EDPVR (TAC rats)	cardioprotective effect and arrhythmia [8]	fibrosis at the same region (microRNA21)	microRNA21 (microRNA21; penumbra region of the ischemic heart)
CCCc1nn(C)c2c(=O)[nH]c(-c3cc(S(=O)(=O)N4CCN(C)CC4)ccc3OCC)nc12 [sildenafil, reference compound]	suppresses	without any effect	significantly enhanced	attenuated																
C[C@@]12CC[C@@H]3[C@@](CC[C@H]4[C@@]3(C)CCC[C@@]4(C)C(=O)O)(CC1=O)C2 [Compound A, (4α,8β,13β)-13-methyl-16-oxo-17-norkauran-18-oic acid]					reducing	prevent	reduce	prevent	prevent	greatly reduce	significantly reduce	had no effect	reduce	enhance	had no effect	sensitizer	prevented the deteriorations	cardioprotective effect	significant amelioration	significant reduced

From patent publication US20180214400A1, “THE USE OF KAURANES COMPOUNDS IN THE MANUFACTURE OF MEDICAMENT FOR TREATMENT OF CADIAC HYPERTROPY AND PULMONARY HYPERTENSION” (KEY-PHARMA BIOMEDICAL INC., priority 2015, published 2018)
